Patent publication US9273058B2 (BRISTOL-MYERS SQUIBB COMPANY, priority 2013, dated 2016)
Like-named read-outs stand apart in the source and are kept apart here.

Tests used:
[1] = target: CK1ε (Homo sapiens, UniProt P49674); assay: CK1ε kinase assay (Caliper LabChip electrophoretic separation of fluoresceinated peptide substrate and product); assay type: biochemical; conditions: 200 pM CK1ε, 50 μM ATP, 1.5 μM peptide, 22 hours at room temperature
Method in brief: (§1)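 Each reaction was incubated 22 hours at room temperature and terminated with EDTA. Read-out was microfluidic electrophoretic separation of fluoresceinated substrate and phospho-product.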

[2] = target: CK1δ (Homo sapiens, UniProt P48730); assay: CK1δ kinase assay (Caliper LabChip electrophoretic separation of fluoresceinated peptide substrate and product); assay type: biochemical; conditions: 200 pM CK1δ, 50 μM ATP, 1.5 μM peptide, 22 hours at room temperature
Sequence of CK1δ (P48730 whole entry): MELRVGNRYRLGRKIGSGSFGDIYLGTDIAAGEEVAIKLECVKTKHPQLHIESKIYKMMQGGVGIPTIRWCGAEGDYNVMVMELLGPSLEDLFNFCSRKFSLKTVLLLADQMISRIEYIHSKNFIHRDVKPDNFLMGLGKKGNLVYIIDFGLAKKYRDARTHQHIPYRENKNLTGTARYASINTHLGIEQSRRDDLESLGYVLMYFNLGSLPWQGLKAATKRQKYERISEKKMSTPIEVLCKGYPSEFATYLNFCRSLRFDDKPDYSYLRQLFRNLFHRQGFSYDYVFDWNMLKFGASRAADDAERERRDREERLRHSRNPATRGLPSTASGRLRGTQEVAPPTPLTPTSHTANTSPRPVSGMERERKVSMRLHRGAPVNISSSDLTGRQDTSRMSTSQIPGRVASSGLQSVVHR
Method in brief: as §1

Sequence of CK1ε (P49674 whole entry): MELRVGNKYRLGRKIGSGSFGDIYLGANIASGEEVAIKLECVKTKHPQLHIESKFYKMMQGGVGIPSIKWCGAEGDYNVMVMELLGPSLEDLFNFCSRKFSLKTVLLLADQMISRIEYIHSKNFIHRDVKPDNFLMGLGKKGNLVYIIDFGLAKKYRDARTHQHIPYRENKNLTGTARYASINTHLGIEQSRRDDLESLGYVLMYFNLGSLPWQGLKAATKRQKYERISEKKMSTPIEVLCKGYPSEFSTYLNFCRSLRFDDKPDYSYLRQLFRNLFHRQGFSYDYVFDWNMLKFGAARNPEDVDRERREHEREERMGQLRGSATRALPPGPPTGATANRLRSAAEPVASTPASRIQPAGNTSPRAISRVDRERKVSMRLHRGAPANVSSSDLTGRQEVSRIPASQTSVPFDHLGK

SMILES: CC(C)(C)NC(=O)N1Cc2c(C(N)=O)c(-c3ccc(F)c(Cl)c3)nn2C(C(C)(C)C)C1 (single isomer, unassigned) [Compound A117, N^5-7-Di-tert-butyl-2-(3-chloro-4-fluorophenyl)-6,7-dihydropyrazolo[1,5-a]pyrazine-3,5(4H)-dicarboxamide]
- IC50 ([1]; read-out: CK1ε IC50 range): 10 to 100 nM
- IC50 ([2]; read-out: CK1δ IC50 range): 100 to 2000 nM

SMILES: CC(C)C1CN(C(=O)NC(C)(C)C)Cc2c(C(N)=O)c(-c3ccc(F)c(Cl)c3)nn21 (single isomer, unassigned) [Compound A119, N^5-(tert-Butyl)-2-(3-chloro-4-fluorophenyl)-7-isopropyl-6,7-dihydropyrazolo[1,5-a]pyrazine-3,5(4H)-dicarboxamide]
- IC50 ([1]; read-out: CK1ε IC50 range): 10 to 100 nM
- IC50 ([2]; read-out: CK1δ IC50 range): 10 to 100 nM

SMILES: CC(C)C1CN(C(=O)NC(C)(C)C)Cc2c(C(N)=O)c(-c3ccc(F)c(Cl)c3)nn21 (single isomer, unassigned) [Compound A120, N^5-(tert-Butyl)-2-(3-chloro-4-fluorophenyl)-7-isopropyl-6,7-dihydropyrazolo[1,5-a]pyrazine-3,5(4H)-dicarboxamide]
- IC50 ([1]; read-out: CK1ε IC50 range): 0.01 to 10 nM
- IC50 ([2]; read-out: CK1δ IC50 range): 0.01 to 10 nM

SMILES: CC(C)(C)C1CN(C(=O)NC2CC(F)(F)C2)Cc2c(C(N)=O)c(-c3ccc(F)c(Cl)c3)nn21 (single isomer, unassigned) [Compound A121, 7-(tert-Butyl)-2-(3-chloro-4-fluorophenyl)-N5-(3,3-difluorocyclobutyl)-6,7-dihydropyrazolo[1,5-a]pyrazine-3,5(4H)-dicarboxamide]
- IC50 ([1]; read-out: CK1ε IC50 range): 10 to 100 nM
- IC50 ([2]; read-out: CK1δ IC50 range): 100 to 2000 nM

SMILES: CC(C)(C)C1CN(C(=O)NC2CC(F)(F)C2)Cc2c(C(N)=O)c(-c3ccc(F)c(Cl)c3)nn21 (single isomer, unassigned) [Compound A122, 7-(tert-Butyl)-2-(3-chloro-4-fluorophenyl)-N5-(3,3-difluorocyclobutyl)-6,7-dihydropyrazolo[1,5-a]pyrazine-3,5(4H)-dicarboxamide]
- IC50 ([1]; read-out: CK1ε IC50 range): 0.01 to 10 nM
- IC50 ([2]; read-out: CK1δ IC50 range): 0.01 to 10 nM

SMILES: NC(=O)c1c(-c2ccc(F)c(Cl)c2)nn2c1CN(C(=O)NC1CC(F)(F)C1)CC2C(F)(F)F (single isomer, unassigned) [Compound A125, 2-(3-Chloro-4-fluorophenyl)-N^5-(3,3-difluorocyclobutyl)-7-(trifluoromethyl)-6,7-dihydropyrazolo[1,5-a]pyrazine-3,5(4H)-dicarboxamide]
- IC50 ([1]; read-out: CK1ε IC50 range): 10 to 100 nM
- IC50 ([2]; read-out: CK1δ IC50 range): 10 to 100 nM

SMILES: NC(=O)c1c(-c2ccc(F)c(Cl)c2)nn2c1CN(C(=O)NC1CC(F)(F)C1)CC2C(F)(F)F (single isomer, unassigned) [Compound A126, 2-(3-Chloro-4-fluorophenyl)-N^5-(3,3-difluorocyclobutyl)-7-(trifluoromethyl)-6,7-dihydropyrazolo[1,5-a]pyrazine-3,5(4H)-dicarboxamide]
- IC50 ([1]; read-out: CK1ε IC50 range): 0.01 to 10 nM
- IC50 ([2]; read-out: CK1δ IC50 range): 0.01 to 10 nM

SMILES: CC(C)(C)NC(=O)N1Cc2c(C(N)=O)c(-c3ccc(F)c(Cl)c3)nn2C(C(F)(F)F)C1 (single isomer, unassigned) [Compound A127, N^5-(tert-Butyl)-2-(3-chloro-4-fluorophenyl)-7-(trifluoromethyl)-6,7-dihydropyrazolo[1,5-a]pyrazine-3,5(4H)-dicarboxamide]
- IC50 ([1]; read-out: CK1ε IC50 range): 10 to 100 nM
- IC50 ([2]; read-out: CK1δ IC50 range): 100 to 2000 nM

SMILES: CC1CN(C(=O)NC(C)(C)C)Cc2c(C(N)=O)c(-c3cccc(Cl)c3)nn21 (stereo not drawn) [A8]
- IC50 ([1]; read-out: CK1ε IC50 range): 0.01 to 10 nM
- IC50 ([2]; read-out: CK1δ IC50 range): 0.01 to 10 nM

SMILES: NC(=O)c1c(-c2cccc(Cl)c2)nn2c1CN(C(=O)NC1CC(F)(F)C1)CC21CC1 [A130]
- IC50 ([1]; read-out: CK1ε IC50 range): 0.01 to 10 nM
- IC50 ([2]; read-out: CK1δ IC50 range): 0.01 to 10 nM

SMILES: CC(C)(C)NC(=O)N1CCn2nc(-c3ccc(F)cc3)c(C(N)=O)c2C1 [Compound 1]
- IC50 ([1]; read-out: CK1ε): 90.3 nM
- IC50 ([1]; read-out: CK1ε IC50 range): 10 to 100 nM
- IC50 ([2]; read-out: CK1δ): 27.8 nM
- IC50 ([2]; read-out: CK1δ IC50 range): 10 to 100 nM

SMILES: CC(C)NC(=O)N1CCn2nc(-c3ccc(F)cc3)c(C(N)=O)c2C1 [Compound 2, 2-(4-Fluorophenyl)-N^5-isopropyl-6,7-dihydropyrazolo[1,5-a]pyrazine-3,5(4H)-dicarboxamide]
- IC50 ([1]; read-out: CK1ε IC50 range): 10 to 100 nM
- IC50 ([2]; read-out: CK1δ IC50 range): 10 to 100 nM

SMILES: CC(C)(C)NC(=O)N1CCn2nc(-c3cccc(F)c3)c(C(N)=O)c2C1 [Compound 4, N^5-(tert-Butyl)-2-(3-fluorophenyl)-6,7-dihydropyrazolo[1,5-a]pyrazine-3,5(4H)-dicarboxamide]
- IC50 ([1]; read-out: CK1ε): 38.1 nM
- IC50 ([1]; read-out: CK1ε IC50 range): 10 to 100 nM
- IC50 ([2]; read-out: CK1δ): 10.9 nM
- IC50 ([2]; read-out: CK1δ IC50 range): 10 to 100 nM

SMILES: CC(C)NC(=O)N1CCn2nc(-c3cccc(F)c3)c(C(N)=O)c2C1 [Compound 5, 2-(3-Fluorophenyl)-N^5-isopropyl-6,7-dihydropyrazolo[1,5-a]pyrazine-3,5(4H)-dicarboxamide]
- IC50 ([1]; read-out: CK1ε IC50 range): 10 to 100 nM
- IC50 ([2]; read-out: CK1δ IC50 range): 10 to 100 nM

SMILES: NC(=O)c1c(-c2cccc(F)c2)nn2c1CN(C(=O)NC1CCCCC1)CC2 [Compound 6, N^5-Cyclohexyl-2-(3-fluorophenyl)-6,7-dihydropyrazolo[1,5-a]pyrazine-3,5(4H)-dicarboxamide]
- IC50 ([1]; read-out: CK1ε): 7.2 nM
- IC50 ([1]; read-out: CK1ε IC50 range): 0.01 to 10 nM
- IC50 ([2]; read-out: CK1δ): 2.4 nM
- IC50 ([2]; read-out: CK1δ IC50 range): 0.01 to 10 nM

SMILES: NC(=O)c1c(-c2cccc(F)c2)nn2c1CN(C(=O)NC1CC1)CC2 [Compound 7, N^5-Cyclopropyl-2-(3-fluorophenyl)-6,7-dihydropyrazolo[1,5-a]pyrazine-3,5(4H)-dicarboxamide]
- IC50 ([1]; read-out: CK1ε IC50 range): 10 to 100 nM
- IC50 ([2]; read-out: CK1δ IC50 range): 10 to 100 nM

SMILES: NC(=O)c1c(-c2cccc(F)c2)nn2c1CN(C(=O)NC1CCC1)CC2 [Compound 8, N^5-Cyclobutyl-2-(3-fluorophenyl)-6,7-dihydropyrazolo[1,5-a]pyrazine-3,5(4H)-dicarboxamide]
- IC50 ([1]; read-out: CK1ε IC50 range): 10 to 100 nM
- IC50 ([2]; read-out: CK1δ IC50 range): 10 to 100 nM

SMILES: CC1(NC(=O)N2CCn3nc(-c4cccc(F)c4)c(C(N)=O)c3C2)CC1 [Compound 11, 2-(3-Fluorophenyl)-N^5-(1-methylcyclopropyl)-6,7-dihydropyrazolo[1,5-a]pyrazine-3,5(4H)-dicarboxamide]
- IC50 ([1]; read-out: CK1ε IC50 range): 10 to 100 nM
- IC50 ([2]; read-out: CK1δ IC50 range): 10 to 100 nM

SMILES: NC(=O)c1c(-c2cccc(F)c2)nn2c1CN(C(=O)NC1CCC(F)(F)CC1)CC2 [Compound 12, N^5-(4,4-Difluorocyclohexyl)-2-(3-fluorophenyl)-6,7-dihydropyrazolo[1,5-a]pyrazine-3,5(4H)-dicarboxamide]
- IC50 ([1]; read-out: CK1ε IC50 range): 100 to 2000 nM
- IC50 ([2]; read-out: CK1δ IC50 range): 10 to 100 nM

SMILES: CC(C)(NC(=O)N1CCn2nc(-c3cccc(F)c3)c(C(N)=O)c2C1)C(F)(F)F [Compound 13, 2-(3-Fluorophenyl)-N^5-(1,1,1-trifluoro-2-methylpropan-2-yl)-6,7-dihydropyrazolo[1,5-a]pyrazine-3,5(4H)-dicarboxamide]
- IC50 ([1]; read-out: CK1ε IC50 range): 10 to 100 nM
- IC50 ([2]; read-out: CK1δ IC50 range): 0.01 to 10 nM

SMILES: NC(=O)c1c(-c2cccc(F)c2)nn2c1CN(C(=O)NCCC(F)(F)F)CC2 [Compound 14, 2-(3-Fluorophenyl)-N^5-(3,3,3-trifluoropropyl)-6,7-dihydropyrazolo[1,5-a]pyrazine-3,5(4H)-dicarboxamide]
- IC50 ([1]; read-out: CK1ε IC50 range): 10 to 100 nM
- IC50 ([2]; read-out: CK1δ IC50 range): 10 to 100 nM

SMILES: NC(=O)c1c(-c2cccc(F)c2)nn2c1CN(C(=O)NCC(F)(F)F)CC2 [Compound 15, 2-(3-Fluorophenyl)-N^5-(2,2,2-trifluoroethyl)-6,7-dihydropyrazolo[1,5-a]pyrazine-3,5(4H)-dicarboxamide]
- IC50 ([1]; read-out: CK1ε IC50 range): 100 to 2000 nM
- IC50 ([2]; read-out: CK1δ IC50 range): 10 to 100 nM

SMILES: CC1(C)CC(NC(=O)N2CCn3nc(-c4cccc(F)c4)c(C(N)=O)c3C2)CC(C)(C)N1 [Compound 18, 2-(3-Fluorophenyl)-N^5-(2,2,6,6-tetramethylpiperidin-4-yl)-6,7-dihydropyrazolo[1,5-a]pyrazine-3,5(4H)-dicarboxamide]
- IC50 ([1]; read-out: CK1ε IC50 range): 100 to 2000 nM
- IC50 ([2]; read-out: CK1δ IC50 range): 10 to 100 nM

SMILES: NC(=O)c1c(-c2cccc(F)c2)nn2c1CN(C(=O)NC1(C(F)(F)F)CC1)CC2 [Compound 20, 2-(3-Fluorophenyl)-N^5-(1-(trifluoromethyl)cyclopropyl)-6,7-dihydropyrazolo[1,5-a]pyrazine-3,5(4H)-dicarboxamide]
- IC50 ([1]; read-out: CK1ε IC50 range): 10 to 100 nM
- IC50 ([2]; read-out: CK1δ IC50 range): 10 to 100 nM

SMILES: NC(=O)c1c(-c2cccc(F)c2)nn2c1CN(C(=O)NC13CC(C1)C3)CC2 [Compound 24, N^5-(Bicyclo[1.1.1]pentan-1-yl)-2-(3-fluorophenyl)-6,7-dihydropyrazolo[1,5-a]pyrazine-3,5(4H)-dicarboxamide]
- IC50 ([1]; read-out: CK1ε IC50 range): 10 to 100 nM
- IC50 ([2]; read-out: CK1δ IC50 range): 10 to 100 nM

SMILES: NC(=O)c1c(-c2cccc(F)c2)nn2c1CN(C(=O)Nc1cc(F)ccc1F)CC2 [Compound 26, N^5-(2,5-Difluorophenyl)-2-(3-fluorophenyl)-6,7-dihydropyrazolo[1,5-a]pyrazine-3,5(4H)-dicarboxamide]
- IC50 ([1]; read-out: CK1ε IC50 range): 10 to 100 nM
- IC50 ([2]; read-out: CK1δ IC50 range): 10 to 100 nM

SMILES: NC(=O)c1c(-c2cccc(F)c2)nn2c1CN(C(=O)Nc1cc(F)cc(F)c1F)CC2 [Compound 27, 2-(3-Fluorophenyl)-N^5-(2,3,5-trifluorophenyl)-6,7-dihydropyrazolo[1,5-a]pyrazine-3,5(4H)-dicarboxamide]
- IC50 ([1]; read-out: CK1ε IC50 range): 10 to 100 nM
- IC50 ([2]; read-out: CK1δ IC50 range): 10 to 100 nM

SMILES: NC(=O)c1c(-c2cccc(F)c2)nn2c1CN(C(=O)Nc1cccc(F)c1F)CC2 [Compound 28, N^5-(2,3-Difluorophenyl)-2-(3-fluorophenyl)-6,7-dihydropyrazolo[1,5-a]pyrazine-3,5(4H)-dicarboxamide]
- IC50 ([1]; read-out: CK1ε IC50 range): 10 to 100 nM
- IC50 ([2]; read-out: CK1δ IC50 range): 10 to 100 nM

SMILES: NC(=O)c1c(-c2cccc(F)c2)nn2c1CN(C(=O)Nc1ccc(F)cc1F)CC2 [Compound 30, N^5-(2,4-Difluorophenyl)-2-(3-fluorophenyl)-6,7-dihydropyrazolo[1,5-a]pyrazine-3,5(4H)-dicarboxamide]
- IC50 ([1]; read-out: CK1ε IC50 range): 10 to 100 nM
- IC50 ([2]; read-out: CK1δ IC50 range): 10 to 100 nM

SMILES: NC(=O)c1c(-c2cccc(F)c2)nn2c1CN(C(=O)Nc1ccc(F)cc1Cl)CC2 [Compound 32, N^5-(2-Chloro-4-fluorophenyl)-2-(3-fluorophenyl)-6,7-dihydropyrazolo[1,5-a]pyrazine-3,5(4H)-dicarboxamide]
- IC50 ([1]; read-out: CK1ε IC50 range): 10 to 100 nM
- IC50 ([2]; read-out: CK1δ IC50 range): 10 to 100 nM
